ChEMBL document CHEMBL6120977, “Structure-Affinity-Pharmacokinetics Relationships of Novel 18F-Labeled 1,4-Diazepane Derivatives for Orexin 1 Receptor Imaging” (J Med Chem, 2024)

Tests used:
Orexin receptor type 2 [1] = biological target: T1, Orexin receptor type 2 (Homo sapiens, UniProt O43614); test: Displacement of [3H]EMPA from recombinant human OX2R extracted from HEK293T membrane by radioligand binding assay; type: cell membranes
T1 sequence (O43614 whole entry): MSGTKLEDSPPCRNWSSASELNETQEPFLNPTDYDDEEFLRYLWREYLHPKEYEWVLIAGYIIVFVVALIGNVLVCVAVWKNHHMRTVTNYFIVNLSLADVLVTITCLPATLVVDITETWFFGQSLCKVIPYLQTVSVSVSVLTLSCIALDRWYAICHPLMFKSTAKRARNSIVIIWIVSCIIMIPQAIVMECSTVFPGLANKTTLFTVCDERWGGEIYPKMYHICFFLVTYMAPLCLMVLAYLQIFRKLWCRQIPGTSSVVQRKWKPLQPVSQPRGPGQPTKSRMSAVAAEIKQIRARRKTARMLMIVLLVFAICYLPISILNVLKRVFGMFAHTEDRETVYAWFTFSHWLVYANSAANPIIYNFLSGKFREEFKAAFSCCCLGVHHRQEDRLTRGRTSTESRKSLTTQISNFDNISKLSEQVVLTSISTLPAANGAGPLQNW

Homo sapiens = species: Homo sapiens; test: Selectivity ratio of IC50 for recombinant human OX2R extracted from HEK293T cell membrane to IC50 for recombinant human OX1R extracted from HEK293T cell membrane
[2] = biological target: T2, Orexin/Hypocretin receptor type 1 (Homo sapiens, UniProt O43613); test: Displacement of [3H]SB-674042 from recombinant human OX1R extracted from HEK293T membrane by radioligand binding assay; type: cell membranes
T2 sequence (O43613 whole entry): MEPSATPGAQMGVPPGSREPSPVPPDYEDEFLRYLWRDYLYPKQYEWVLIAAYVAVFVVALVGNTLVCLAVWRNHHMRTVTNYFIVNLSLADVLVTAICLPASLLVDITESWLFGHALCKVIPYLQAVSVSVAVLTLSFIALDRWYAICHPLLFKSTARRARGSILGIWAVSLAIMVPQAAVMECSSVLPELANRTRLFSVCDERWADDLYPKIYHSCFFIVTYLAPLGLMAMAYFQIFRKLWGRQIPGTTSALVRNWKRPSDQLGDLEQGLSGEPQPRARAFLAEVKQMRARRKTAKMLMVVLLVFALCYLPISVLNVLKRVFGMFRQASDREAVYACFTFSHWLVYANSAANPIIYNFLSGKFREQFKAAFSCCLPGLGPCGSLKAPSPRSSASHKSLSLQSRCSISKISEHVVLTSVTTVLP

Orexin receptor type 2 [3] = biological target: T1, Orexin receptor type 2; test: Displacement of [125I]Orexin A from recombinant human OX2R expressed in CHO-S cells by radioligand competition binding assay; type: cell-based
[4] = biological target: T2, Orexin/Hypocretin receptor type 1; test: Displacement of [125I]Orexin A from recombinant human OX1R expressed in CHO-S cells by radioligand competition binding assay; type: cell-based
[5] = Apparent permeability in pig LLC-PK1 cells; type: ADME, cell-based, Sus scrofa

In the case of `CC[C@H](C)[C@H]1CN(c2nc3cc(Cl)ccc3o2)CCCN1C(=O)c1cc(C)ccc1-n1nccn1`, the IC50 (Orexin receptor type 2 [1]) is reported as 54 nM, the Ratio IC50 (Homo sapiens) is reported as 75 and the IC50 [2] is reported as 0.72 nM.

`COc1ccnc(N2CCC3(CCN(Cc4cn([11CH3])c5ccccc45)C(=O)C3)CC2)n1` showed an IC50 (Orexin receptor type 2 [3]) of 1410 nM and an IC50 [4] of 253 nM.

`Cc1ccc(-n2nccn2)c(C(=O)N2CCN(c3nc4cc(Cl)ccc4o3)CC[C@H]2C)c1` [SUVOREXANT] gave a Papp [5] of 34.6 ×10⁻⁶ cm/s.
